# Data published in patent publication US8192962B2, “Processes for detecting toxic substances” (Daikin Industries, Ltd., priority 2001, dated 2012).
# System: Genes belonging to other category
# Assay: DNA chip mRNA expression in yeast, genes belonging to other category (Table 9)
# Type: cell-based, Saccharomyces cerevisiae S288C
# Method in brief: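 In this screen, yeast in logarithmic growth are challenged for two hours with a toxic substance at a non-lethal inhibitory concentration. Their mRNA, converted to Cy3- or Cy5-labeled cDNA, hybridizes at 65° C. to a chip spanning every yeast gene, and expression is expressed as a ratio to untreated cells.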
smiles,measurement,setting,value
"N#Cc1c(Cl)c(Cl)c(Cl)c(C#N)c1Cl [(9), 2,4,5,6-tetrachloro-1,3-benzenedicarbonitrile]",The level of expressed mRNA in the presence of chemical substance/The level of expressed mRNA in the absence of chemical substance,yeast gene YJR091C,2.4
same,The level of expressed mRNA in the presence of chemical substance/The level of expressed mRNA in the absence of chemical substance,yeast gene YJR099W,1.4
same,The level of expressed mRNA in the presence of chemical substance/The level of expressed mRNA in the absence of chemical substance,yeast gene YJR110W,4.9
same,The level of expressed mRNA in the presence of chemical substance/The level of expressed mRNA in the absence of chemical substance,yeast gene YJR122W,5.3
same,The level of expressed mRNA in the presence of chemical substance/The level of expressed mRNA in the absence of chemical substance,yeast gene YKL008C,0.3
same,The level of expressed mRNA in the presence of chemical substance/The level of expressed mRNA in the absence of chemical substance,yeast gene YKL013C,1.5
same,The level of expressed mRNA in the presence of chemical substance/The level of expressed mRNA in the absence of chemical substance,yeast gene YKL039W,1.3
same,The level of expressed mRNA in the presence of chemical substance/The level of expressed mRNA in the absence of chemical substance,yeast gene YKL041W,1.6
same,The level of expressed mRNA in the presence of chemical substance/The level of expressed mRNA in the absence of chemical substance,yeast gene YKL079W,2.3
same,The level of expressed mRNA in the presence of chemical substance/The level of expressed mRNA in the absence of chemical substance,yeast gene YKL096W,0.0
same,The level of expressed mRNA in the presence of chemical substance/The level of expressed mRNA in the absence of chemical substance,yeast gene YKL139W,1.6
same,The level of expressed mRNA in the presence of chemical substance/The level of expressed mRNA in the absence of chemical substance,yeast gene YKL165C,0.4
same,The level of expressed mRNA in the presence of chemical substance/The level of expressed mRNA in the absence of chemical substance,yeast gene YKL193C,1.0
same,The level of expressed mRNA in the presence of chemical substance/The level of expressed mRNA in the absence of chemical substance,yeast gene YKL196C,4.3
same,The level of expressed mRNA in the presence of chemical substance/The level of expressed mRNA in the absence of chemical substance,yeast gene YKR014C,2.4
same,The level of expressed mRNA in the presence of chemical substance/The level of expressed mRNA in the absence of chemical substance,yeast gene YKR068C,2.4
same,The level of expressed mRNA in the presence of chemical substance/The level of expressed mRNA in the absence of chemical substance,yeast gene YLL054C,2.4
same,The level of expressed mRNA in the presence of chemical substance/The level of expressed mRNA in the absence of chemical substance,yeast gene YLR080W,2.3
same,The level of expressed mRNA in the presence of chemical substance/The level of expressed mRNA in the absence of chemical substance,yeast gene YLR093C,1.5
same,The level of expressed mRNA in the presence of chemical substance/The level of expressed mRNA in the absence of chemical substance,yeast gene YLR118C,1.1
same,The level of expressed mRNA in the presence of chemical substance/The level of expressed mRNA in the absence of chemical substance,yeast gene YLR120C,1.8
same,The level of expressed mRNA in the presence of chemical substance/The level of expressed mRNA in the absence of chemical substance,yeast gene YLR136C,0.9
same,The level of expressed mRNA in the presence of chemical substance/The level of expressed mRNA in the absence of chemical substance,yeast gene YLR178C,4.3
same,The level of expressed mRNA in the presence of chemical substance/The level of expressed mRNA in the absence of chemical substance,yeast gene YLR206W,1.5
same,The level of expressed mRNA in the presence of chemical substance/The level of expressed mRNA in the absence of chemical substance,yeast gene YLR248W,2.3
same,The level of expressed mRNA in the presence of chemical substance/The level of expressed mRNA in the absence of chemical substance,yeast gene YLR250W,2.7
same,The level of expressed mRNA in the presence of chemical substance/The level of expressed mRNA in the absence of chemical substance,yeast gene YLR251W,2.1
same,The level of expressed mRNA in the presence of chemical substance/The level of expressed mRNA in the absence of chemical substance,yeast gene YLR327C,3.0
same,The level of expressed mRNA in the presence of chemical substance/The level of expressed mRNA in the absence of chemical substance,yeast gene YLR356W,2.3
same,The level of expressed mRNA in the presence of chemical substance/The level of expressed mRNA in the absence of chemical substance,yeast gene YLR362W,3.5
same,The level of expressed mRNA in the presence of chemical substance/The level of expressed mRNA in the absence of chemical substance,yeast gene YLR389C,2.4
same,The level of expressed mRNA in the presence of chemical substance/The level of expressed mRNA in the absence of chemical substance,yeast gene YLR391W,0.4
same,The level of expressed mRNA in the presence of chemical substance/The level of expressed mRNA in the absence of chemical substance,yeast gene YLR429W,0.9
same,The level of expressed mRNA in the presence of chemical substance/The level of expressed mRNA in the absence of chemical substance,yeast gene YMR004W,94.2
same,The level of expressed mRNA in the presence of chemical substance/The level of expressed mRNA in the absence of chemical substance,yeast gene YMR027W,1.1
same,The level of expressed mRNA in the presence of chemical substance/The level of expressed mRNA in the absence of chemical substance,yeast gene YMR053C,2.2
same,The level of expressed mRNA in the presence of chemical substance/The level of expressed mRNA in the absence of chemical substance,yeast gene YMR077C,1.9
same,The level of expressed mRNA in the presence of chemical substance/The level of expressed mRNA in the absence of chemical substance,yeast gene YMR091C,2.1
same,The level of expressed mRNA in the presence of chemical substance/The level of expressed mRNA in the absence of chemical substance,yeast gene YMR094W,−0.1
same,The level of expressed mRNA in the presence of chemical substance/The level of expressed mRNA in the absence of chemical substance,yeast gene YMR104C,0.6
same,The level of expressed mRNA in the presence of chemical substance/The level of expressed mRNA in the absence of chemical substance,yeast gene YMR110C,2.3
same,The level of expressed mRNA in the presence of chemical substance/The level of expressed mRNA in the absence of chemical substance,yeast gene YMR112C,1.4
same,The level of expressed mRNA in the presence of chemical substance/The level of expressed mRNA in the absence of chemical substance,yeast gene YMR139W,2.8
same,The level of expressed mRNA in the presence of chemical substance/The level of expressed mRNA in the absence of chemical substance,yeast gene YMR197C,1.9
same,The level of expressed mRNA in the presence of chemical substance/The level of expressed mRNA in the absence of chemical substance,yeast gene YMR219W,2.3
same,The level of expressed mRNA in the presence of chemical substance/The level of expressed mRNA in the absence of chemical substance,yeast gene YMR226C,2.6
same,The level of expressed mRNA in the presence of chemical substance/The level of expressed mRNA in the absence of chemical substance,yeast gene YMR238W,1.3
same,The level of expressed mRNA in the presence of chemical substance/The level of expressed mRNA in the absence of chemical substance,yeast gene YMR262W,3.0
same,The level of expressed mRNA in the presence of chemical substance/The level of expressed mRNA in the absence of chemical substance,yeast gene YMR275C,2.4
same,The level of expressed mRNA in the presence of chemical substance/The level of expressed mRNA in the absence of chemical substance,yeast gene YMR276W,1.8
